Laboratory results taken from patent USRE43280E1, “Hyperforin derivatives, the use thereof and formulations containing them” (Indena S.p.A., priority 2002, dated 2012).
Read-outs that look alike come from different tables or passages of the source.

Experiments:
[1] = test system: rat; test: forced swimming test (struggling, floating, swimming); format: in vivo; details: 3 doses: 30 minutes after the pre-test, 5 hours and 30 minutes before the test
Protocol: The compounds were administered in 3 doses: 30 minutes after the pre-test, 5 hours and 30 minutes before the test.

[2] = test system: APPs produced by α-secretase in neuroblastoma cell line (SH-SY5Y); test: release of APPs produced by α-secretase into the culture medium of SH-SY5Y cells; format: cell-based
[3] = 10 μM, SH-SY5Y culture medium, controls = 100

Compound	Floating ([1]; 6.25 mg/Kg) [s]	Struggling ([1]; 6.25 mg/Kg) [s]	Swimming ([1]; 6.25 mg/Kg) [s]	APPs % [2, 3] [%]	APPs % [2] [%]	Floating ([1]; 10 mg/Kg) [s]	Struggling ([1]; 10 mg/Kg) [s]	Swimming ([1]; 10 mg/Kg) [s]
CC(=O)OC1=C(CCC(C)C)C(=O)[C@@]2(CCC(C)C)C[C@H](CCC(C)C)[C@@](C)(CCCC(C)C)[C@]1(C(=O)C(C)C)C2=O [Acetyloctahydrohyperforin, acetyloctahydrohyperforin]	68.4 ± 5.7	73.9 ± 5.9	171.9 ± 11.4	954	–	–	–	–
CC(C)=CCC[C@]1(C)[C@@H](CC=C(C)C)C[C@@]2(CC=C(C)C)C(=O)[C@]1(C(=O)C(C)C)C(=O)C(CC=C(C)C)=C2O [Hyperforin]	60.4 ± 7.3	30.4 ± 4.6	99.3 ± 10.6	–	296	–	–	–
dodecahydrohyperforin	55.1 ± 6.2	62.13 ± 5.1	169.5 ± 10.1	879	–	–	–	–
CNCCCN1c2ccccc2CCc2ccccc21 [Desipramin, reference compound]	–	–	–	–	–	53.0 ± 9.2	148.3 ± 12.6	98.8 ± 7.9
octahydrohyperforin lithium salt	59.5 ± 11.3	63.1 ± 5.8	177.4 ± 14.9	1383	–	–	–	–
tetrahydrohyperforin	68.4 ± 7.6	51.4 ± 4.1	193.4 ± 13.2	926	–	–	–	–
